Read-outs that look alike come from different tables or passages of the source.
What was measured:
CD8+ T cells [1] = assay: Meta-analysis of published SARS-CoV-2 CD8 T cell epitope data curated in the IEDB (25 studies); type: cell-based, human
CD8+ T cells [2] = details: cited from earlier work
[3] = CD8S (D) Megapool, antigen S, dominant = recognized in 3 or more donors/studies
[4] = SARS-CoV-2-derived CD8 epitopes, dominant = recognized by 3 or more donors/different studies
[5] = CD8 epitopes, Yes = recognized by 3 or more donors/different studies
[6] = CD8-restricted SARS-CoV-2 epitopes, Yes = recognized by 3 or more donors/different studies
[7] = T cell type (CD4 or CD8) recognizing the SARS-CoV-2 epitope
[8] = T cell subset (CD4 or CD8) recognizing the SARS-CoV-2-derived epitope
[9] = CD8R (D) megapool epitopes, dominant = recognized by 3 or more donors/different studies
[10] = CD8RE megapool peptides (non-spike SARS-CoV-2 antigens), dominant epitope Yes/No
[11] = SARS-CoV-2 Ag S, T cell type recognizing the epitope

Substance: 1518 (QYIKWPWYI) [compound 1518]
- Dominant (CD8+ T cells [1]; [3]): Yes (more dominant epitopes are defined by being recognized by 3 or more donors/different studies)

Substance: 877 (KLKDCVMYA) [compound 877]
- Dominant (CD8+ T cells [1]; [4]): Yes (more dominant epitopes are defined by being recognized by 3 or more donors/different studies)

Substance: 492 (KFPRGQGVPI) [compound 492]
- Dominant (CD8+ T cells [1]; [5]): Yes (more dominant epitopes are defined by being recognized by 3 or more donors/different studies)

Substance: 1260 (WTAGAAAYYVGY) [compound 1260]
- Dominant (CD8+ T cells [1]; [6]): Yes (more dominant epitopes are defined by being recognized by 3 or more donors/different studies)

Substance: 841 (FLLNKEMYL) [compound 841]
- Dominant (CD8+ T cells [1]; [4]): Yes (more dominant epitopes are defined by being recognized by 3 or more donors/different studies)

Substance: 1107 (FVRATATIPI) [compound 1107]
- Dominant (CD8+ T cells [1]; [6]): Yes (more dominant epitopes are defined by being recognized by 3 or more donors/different studies)

Substance: 1192 (LEYHDVRVVL) [compound 1192]
- Dominant (CD8+ T cells [1]; [6]): Yes (more dominant epitopes are defined by being recognized by 3 or more donors/different studies)

Substance: 1296 (KIADYNYKL) [compound 1296]
- Dominant (CD8+ T cells [1]; [6]): Yes (more dominant epitopes are defined by being recognized by 3 or more donors/different studies)

Substance: 1515 (GTHWFVTQR) [compound 1515]
- Dominant (CD8+ T cells [1]; [3]): Yes (more dominant epitopes are defined by being recognized by 3 or more donors/different studies)

Substance: 1491 (GPKKSTNLV) [compound 1491]
- Dominant (CD8+ T cells [1]; [3]): Yes (more dominant epitopes are defined by being recognized by 3 or more donors/different studies)

Substance: 1500 (TECSNLLLQY) [compound 1500]
- Dominant (CD8+ T cells [1]; [3]): Yes (more dominant epitopes are defined by being recognized by 3 or more donors/different studies)

Substance: 772 (QLMCQPILLL) [compound 772]
- Dominant (CD8+ T cells [1]; [4]): Yes (more dominant epitopes are defined by being recognized by 3 or more donors/different studies)

Substance: 818 (RPDTRYVL) [compound 818]
- Dominant (CD8+ T cells [1]; [4]): Yes (more dominant epitopes are defined by being recognized by 3 or more donors/different studies)

Substance: 808 (FLPRVFSAV) [compound 808]
- Dominant (CD8+ T cells [1]; [4]): Yes (more dominant epitopes are defined by being recognized by 3 or more donors/different studies)

Substance: 866 (SAFAMMFVK) [compound 866]
- Dominant (CD8+ T cells [1]; [4]): Yes (more dominant epitopes are defined by being recognized by 3 or more donors/different studies)

Substance: 856 (FLNGSCGSV) [compound 856]
- Dominant (CD8+ T cells [1]; [4]): Yes (more dominant epitopes are defined by being recognized by 3 or more donors/different studies)

Substance: 1499 (TEILPVSMTK) [compound 1499]
- Dominant (CD8+ T cells [1]; [3]): Yes (more dominant epitopes are defined by being recognized by 3 or more donors/different studies)

Substance: 455 (RLFARTRSMW) [compound 455]
- Dominant (CD8+ T cells [1]; [5]): Yes (more dominant epitopes are defined by being recognized by 3 or more donors/different studies)

Substance: 963 (YRYNLPTM) [compound 963]
- Restriction (CD8+ T cells [2]; [7]): CD8

Substance: 1032 (VPQEHYVRI) [compound 1032]
- Restriction (CD8+ T cells [2]; [7]): CD8

Substance: 676 (VRETMSYLF) [compound 676]
- Restriction (CD8+ T cells [2]; [8]): CD8

Substance: 1045 (ILGLPTQTV) [compound 1045]
- Restriction (CD8+ T cells [2]; [7]): CD8

Substance: 1722 (RLYYDSMSY) [compound 1722]
- Dominant (CD8+ T cells [2]; [9]): Yes (more dominant epitopes are defined by being recognized by 3 or more donors/different studies)

Substance: 967 (KSAGFPFNKW) [compound 967]
- Restriction (CD8+ T cells [2]; [7]): CD8

Substance: 582 (GETLPTEVL) [compound 582]
- Restriction (CD8+ T cells [2]; [8]): CD8

Substance: 3014 (VRIQPGQTF) [compound 3014]
- Dominant (CD8+ T cells [2]; [10]): Yes (more dominant epitopes are defined by being recognized by 3 or more donors/different studies)

Substance: 1702 (ASAFFGMSR) [compound 1702]
- Dominant (CD8+ T cells [2]; [9]): Yes (more dominant epitopes are defined by being recognized by 3 or more donors/different studies)

Substance: 1022 (KPPISFPL) [compound 1022]
- Restriction (CD8+ T cells [2]; [7]): CD8

Substance: 978 (IAATRGATV) [compound 978]
- Restriction (CD8+ T cells [2]; [7]): CD8

Substance: 572 (VRSIFSRTL) [compound 572]
- Restriction (CD8+ T cells [2]; [8]): CD8

Substance: 519 (LLLLDRLNQL) [compound 519]
- Dominant (CD8+ T cells [2]; [4]): Yes (more dominant epitopes are defined by being recognized by 3 or more donors/different studies)
- Restriction (CD8+ T cells [2]; [8]): CD8

Substance: 1048 (EEAIRHVRAW) [compound 1048]
- Restriction (CD8+ T cells [2]; [7]): CD8

Substance: 2978 (AIMTRCLAV) [compound 2978]
- Dominant (CD8+ T cells [2]; [10]): Yes (more dominant epitopes are defined by being recognized by 3 or more donors/different studies)

Substance: 1804 (ALSKGVHFV) [compound 1804]
- Dominant (CD8+ T cells [2]; [9]): Yes (more dominant epitopes are defined by being recognized by 3 or more donors/different studies)

Substance: 1430 (GVVFLHVTY) [compound 1430]
- Restriction (CD8+ T cells [2]; [11]): CD8

Substance: 635 (KLMPVCVET) [compound 635]
- Restriction (CD8+ T cells [2]; [8]): CD8

Substance: 3016 (GTDLEGNFY) [compound 3016]
- Dominant (CD8+ T cells [2]; [10]): Yes (more dominant epitopes are defined by being recognized by 3 or more donors/different studies)

Substance: 1666 (SLVKPSFYV) [compound 1666]
- Dominant (CD8+ T cells [2]; [9]): Yes (more dominant epitopes are defined by being recognized by 3 or more donors/different studies)

Substance: 589 (ELDERIDKV) [compound 589]
- Restriction (CD8+ T cells [2]; [8]): CD8

Substance: 1074 (TICAPLTVF) [compound 1074]
- Restriction (CD8+ T cells [2]; [7]): CD8

Substance: 3040 (YLYALVYFL) [compound 3040]
- Dominant (CD8+ T cells [2]; [10]): Yes (more dominant epitopes are defined by being recognized by 3 or more donors/different studies)

Substance: 1464 (CMTSCCSCLK) [compound 1464]
- Restriction (CD8+ T cells [2]; [11]): CD8

Substance: 1763 (QEILGTVSW) [compound 1763]
- Dominant (CD8+ T cells [2]; [9]): Yes (more dominant epitopes are defined by being recognized by 3 or more donors/different studies)

Substance: 933 (FVENPDILRV) [compound 933]
- Restriction (CD8+ T cells [2]; [7]): CD8

Substance: 988 (RLANECAQV) [compound 988]
- Restriction (CD8+ T cells [2]; [7]): CD8

Substance: 1002 (KQGDDYVYL) [compound 1002]
- Restriction (CD8+ T cells [2]; [7]): CD8

Substance: 947 (FPPTSFGPL) [compound 947]
- Restriction (CD8+ T cells [2]; [7]): CD8

Substance: 628 (PTDNYITTY) [compound 628]
- Dominant (CD8+ T cells [2]; [4]): Yes (more dominant epitopes are defined by being recognized by 3 or more donors/different studies)
- Restriction (CD8+ T cells [2]; [8]): CD8

Substance: 2907 (TLACFVLAAV) [compound 2907]
- Dominant (CD8+ T cells [2]; [10]): Yes (more dominant epitopes are defined by being recognized by 3 or more donors/different studies)

Substance: 591 (VELGTEVNEF) [compound 591]
- Restriction (CD8+ T cells [2]; [8]): CD8

Substance: 1685 (YYRRATRRIR) [compound 1685]
- Dominant (CD8+ T cells [2]; [9]): Yes (more dominant epitopes are defined by being recognized by 3 or more donors/different studies)

Substance: 1809 (YYQLYSTQL) [compound 1809]
- Dominant (CD8+ T cells [2]; [9]): Yes (more dominant epitopes are defined by being recognized by 3 or more donors/different studies)

Substance: 2995 (VTNNTFTLK) [compound 2995]
- Dominant (CD8+ T cells [2]; [10]): Yes (more dominant epitopes are defined by being recognized by 3 or more donors/different studies)

Substance: 1741 (VLWAHGFEL) [compound 1741]
- Dominant (CD8+ T cells [2]; [9]): Yes (more dominant epitopes are defined by being recognized by 3 or more donors/different studies)

Substance: 1325 (LVKNKCVNF) [compound 1325]
- Restriction (CD8+ T cells [2]; [11]): CD8

Substance: 1035 (FAIGLALYY) [compound 1035]
- Restriction (CD8+ T cells [2]; [7]): CD8

Substance: 1691 (ATEGALNTPK) [compound 1691]
- Dominant (CD8+ T cells [2]; [9]): Yes (more dominant epitopes are defined by being recognized by 3 or more donors/different studies)

Substance: 2902 (YVYSRVKNL) [compound 2902]
- Dominant (CD8+ T cells [2]; [10]): Yes (more dominant epitopes are defined by being recognized by 3 or more donors/different studies)
